{"source": "patent EP0063525A1", "about": "“Dibenzazepine tetracyclic derivatives, process for their preparation and pharmaceutical compositions containing them” (CENTRE NATIONAL DE LA RECHERCHE SCIENTIFIQUE (CNRS), priority 1981, dated 1982)", "key": {"Souris [1]": {"tested_on": "Souris", "test": "tetrabenazine ptosis", "assay_type": "in vivo", "settings": "for Ptosis 30 minutes / Ptosis 60 minutes / Ptosis 90 minutes / Ptosis 120 minutes: score 0-4 per eye", "experimental": "(§1) Ce test permet de révéler également une activité antidépressive avec l'avantage d'une lecture plus rapide qu'avec la réserpine.\n(§2) Les souris sont réparties par lots de 5.\nLe ptosis est noté avant l'injection de tétrabénazine, 30 minutes, 60 minutes, 90 minutes et 120 minutes après.\nOn a adopté la notation suivante : • - 0 : pour un oeil ouvert, • - 1 : pour un oeil fermé au quart, • - 2 : pour un oeil fermé à moitié, • - 3 : pour un oeil fermé aux trois-quarts, • - 4 : pour un oeil fermé complètement.\n(§3) Le lot témoin comprend 20 souris."}, "Souris [2]": {"tested_on": "Souris", "test": "tetrabenazine hypothermia", "assay_type": "in vivo", "experimental": "as §1\nLes produits sont injectés 30 minutes avant l'administration de tétrabénazine.\nLes températures sont relevées aux temps : 0, 30 minutes, 60 minutes, 90 minutes et 120 minutes.\nas §2\nLes températures sont relevées avant l'injection de tétrabénazine, 30 minutes, 60 minutes, 90 minutes et 120 minutes après.\nas §3"}, "souris femelles": {"tested_on": "souris femelles", "test": "acute toxicity in the mouse, intraperitoneal", "assay_type": "in vivo", "settings": "voie intrapéritonéale, dead mice of the group", "source_text": "(§4) Les produits ont été administrés par voie intrapéritonéale à des souris femelles dont le poids variait de 18 à 30 g.\n(§5) Les animaux injectés ont été maintenus dans une salle thermostatée, nourris et abreuvés à volonté.\n(§6) La mortalité a été relevée à 1 heure, 4 heures, 24 heures et 48 heures."}, "[3]": {"test": "acute toxicity in the mouse, intraperitoneal", "assay_type": "in vivo, Souris", "settings": "mouse, in vivo, ip, voie intrapéritonéale; for LD50 at 48 h: souris femelles, read-out: DL 50; for mortality at 48 h: read-out: Mortalité %", "source_text": "as §4, §5, §6"}, "Souris [4]": {"tested_on": "Souris", "test": "antireserpine activity: reserpine hypothermia", "assay_type": "in vivo", "settings": "réserpine 5 mg/kg i.p. 17 h before", "method_in_brief": "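Mice in groups of 4 given reserpine 5 mg/kg i.p.; 17 hours later rectal temperature taken by thermocouple and test substance or solvent given i.p. Temperature measured hourly for 4 hours. Reported as mean temperature changes at 1, 2, 3 and 4 hours, their 4-hour sum, and percent rise versus solvent controls.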"}, "[5]": {"settings": "product i.p. 200 mg/kg 30 min before tétrabénazine 32 mg/kg i.v."}, "[6]": {"settings": "product i.p. 50 mg/kg 30 min before tétrabénazine 32 mg/kg i.v."}}, "note": "Where two headings read alike, the source gives them in different places."}
{"smiles": "CN(C)CCN1c2ccccc2-c2c(-c3ccccc3)nn(-c3ccccc3)c2-c2ccccc21", "note": "[compound 13]", "values": [{"measurement": "inhibition in vivo at 200 mg/kg", "setting": "Souris [1]; ip, 2 h, ptosis, product i.p. 200 mg/kg 30 min before tétrabénazine 32 mg/kg i.v., read-out: % de protection", "value": 14, "unit": "%"}, {"measurement": "Ptosis Total", "setting": "Souris [1]; [5]", "value": "25,9"}, {"measurement": "Ptosis 30 minutes", "setting": "Souris [1]; [5]", "value": 4}, {"measurement": "Ptosis 60 minutes", "setting": "Souris [1]; [5]", "value": "6,8"}, {"measurement": "Ptosis 90 minutes", "setting": "Souris [1]; [5]", "value": "7,6"}, {"measurement": "Ptosis 120 minutes", "setting": "Souris [1]; [5]", "value": "7,5"}, {"measurement": "inhibition in vivo at 200 mg/kg", "setting": "Souris [2]; ip, 2 h, hypothermie, product i.p. 200 mg/kg 30 min before tétrabénazine 32 mg/kg i.v., read-out: % de protection", "value": 15, "unit": "%"}, {"measurement": "Température après tétrabénazine 30 minutes", "setting": "Souris [2]; [5]", "value": "-3,4"}, {"measurement": "Température après tétrabénazine 60 minutes", "setting": "Souris [2]; [5]", "value": "-1,9"}, {"measurement": "Température après tétrabénazine 90 minutes", "setting": "Souris [2]; [5]", "value": "-1,1"}, {"measurement": "Température après tétrabénazine 120 minutes", "setting": "Souris [2]; [5]", "value": "-0,9"}, {"measurement": "Température après tétrabénazine Total", "setting": "Souris [2]; [5]", "value": "-7,3"}, {"measurement": "Mortalité en 1 heure", "setting": "souris femelles; 50 mg/kg", "value": 0}, {"measurement": "Mortalité en 48 h.", "setting": "souris femelles; 50 mg/kg", "value": 0}, {"measurement": "Mortalité en 1 heure", "setting": "souris femelles; 100 mg/kg", "value": 0}, {"measurement": "Mortalité en 48 h.", "setting": "souris femelles; 100 mg/kg", "value": 0}, {"measurement": "Mortalité en 1 heure", "setting": "souris femelles; 250 mg/kg", "value": 0}, {"measurement": "Mortalité en 48 h.", "setting": "souris femelles; 250 mg/kg", "value": 0}, {"measurement": "Mortalité en 1 heure", "setting": "souris femelles; 400 mg/kg", "value": 3}, {"measurement": "Mortalité en 48 heures", "setting": "souris femelles; 400 mg/kg", "value": 3}, {"measurement": "Mortalité en 1 heure", "setting": "souris femelles; 750 mg/kg", "value": 2}, {"measurement": "Mortalité en 48 h.", "setting": "souris femelles; 750 mg/kg", "value": 5}, {"measurement": "LD50 at 48 h", "setting": "[3]", "value": 350, "unit": "mg/kg"}, {"measurement": "mortality at 48 h", "setting": "[3]; 50 mg/kg", "value": 0, "unit": "%"}, {"measurement": "mortality at 48 h", "setting": "[3]; 100 mg/kg", "value": 0, "unit": "%"}, {"measurement": "mortality at 48 h", "setting": "[3]; 250 mg/kg", "value": 0, "unit": "%"}, {"measurement": "mortality at 48 h", "setting": "[3]; 400 mg/kg", "value": 60, "unit": "%"}, {"measurement": "mortality at 48 h", "setting": "[3]; 750 mg/kg", "value": 100, "unit": "%"}, {"measurement": "change in vivo at 200 mg/kg", "setting": "Souris [4]; ip, 4 h, product i.p. 200 mg/kg, read-out: % d'augmentation par rapport aux témoins", "value": 70, "unit": "%"}, {"measurement": "variation de température T=1h", "setting": "Souris [4]; product i.p. 200 mg/kg", "value": "+1,9"}, {"measurement": "variation de température T= 2h", "setting": "Souris [4]; product i.p. 200 mg/kg", "value": "+1"}, {"measurement": "variation de température T=3h", "setting": "Souris [4]; product i.p. 200 mg/kg", "value": "+0,5"}, {"measurement": "variation de température T=4h", "setting": "Souris [4]; product i.p. 200 mg/kg", "value": 0}]}
{"smiles": "CN(C)CCCN1c2ccccc2-c2onc(-c3ccccc3)c2-c2ccccc21", "note": "[compound 18]", "values": [{"measurement": "inhibition in vivo at 50 mg/kg", "setting": "Souris [1]; ip, 2 h, ptosis, product i.p. 50 mg/kg 30 min before tétrabénazine 32 mg/kg i.v., read-out: % de protection", "value": 24, "unit": "%"}, {"measurement": "Ptosis Total", "setting": "Souris [1]; [6]", "value": 23}, {"measurement": "Ptosis 30 minutes", "setting": "Souris [1]; [6]", "value": "3,6"}, {"measurement": "Ptosis 60 minutes", "setting": "Souris [1]; [6]", "value": "5,8"}, {"measurement": "Ptosis 90 minutes", "setting": "Souris [1]; [6]", "value": "6,4"}, {"measurement": "Ptosis 120 minutes", "setting": "Souris [1]; [6]", "value": "7,2"}, {"measurement": "inhibition in vivo at 50 mg/kg", "setting": "Souris [2]; ip, 2 h, hypothermie, product i.p. 50 mg/kg 30 min before tétrabénazine 32 mg/kg i.v., read-out: % de protection", "value": 8, "unit": "%"}, {"measurement": "Température après tétrabénazine 30 minutes", "setting": "Souris [2]; [6]", "value": "-3,1"}, {"measurement": "Température après tétrabénazine 60 minutes", "setting": "Souris [2]; [6]", "value": "-1,8"}, {"measurement": "Température après tétrabénazine 90 minutes", "setting": "Souris [2]; [6]", "value": "-1,9"}, {"measurement": "Température après tétrabénazine 120 minutes", "setting": "Souris [2]; [6]", "value": "-1,1"}, {"measurement": "Température après tétrabénazine Total", "setting": "Souris [2]; [6]", "value": "-7,9"}, {"measurement": "Mortalité en 1 heure", "setting": "souris femelles; 50 mg/kg", "value": 0}, {"measurement": "Mortalité en 48 h.", "setting": "souris femelles; 50 mg/kg", "value": 0}, {"measurement": "Mortalité en 1 heure", "setting": "souris femelles; 100 mg/kg", "value": 0}, {"measurement": "Mortalité en 48 h.", "setting": "souris femelles; 100 mg/kg", "value": 0}, {"measurement": "Mortalité en 1 heure", "setting": "souris femelles; 150 mg/kg", "value": 0}, {"measurement": "Mortalité en 48 h.", "setting": "souris femelles; 150 mg/kg", "value": 0}, {"measurement": "Mortalité en 1 heure", "setting": "souris femelles; 200 mg/kg", "value": 5}, {"measurement": "Mortalité en 48 h.", "setting": "souris femelles; 200 mg/kg", "value": 5}, {"measurement": "Mortalité en 1 heure", "setting": "souris femelles; 250 mg/kg", "value": 4}, {"measurement": "Mortalité en 48 h.", "setting": "souris femelles; 250 mg/kg", "value": 5}, {"measurement": "LD50 at 48 h", "setting": "[3]", "value": 225, "unit": "mg/kg"}, {"measurement": "mortality at 48 h", "setting": "[3]; 50 mg/kg", "value": 0, "unit": "%"}, {"measurement": "mortality at 48 h", "setting": "[3]; 100 mg/kg", "value": 0, "unit": "%"}, {"measurement": "mortality at 48 h", "setting": "[3]; 150 mg/kg", "value": 0, "unit": "%"}, {"measurement": "mortality at 48 h", "setting": "[3]; 200 mg/kg", "value": 100, "unit": "%"}, {"measurement": "mortality at 48 h", "setting": "[3]; 250 mg/kg", "value": 100, "unit": "%"}, {"measurement": "change in vivo at 50 mg/kg", "setting": "Souris [4]; ip, 4 h, product i.p. 50 mg/kg, read-out: % d'augmentation par rapport aux témoins", "value": 25, "unit": "%"}, {"measurement": "change in vivo at 150 mg/kg", "setting": "Souris [4]; ip, 4 h, product i.p. 150 mg/kg, read-out: % d'augmentation par rapport aux témoins", "value": 175, "unit": "%"}]}
